PubChem BioAssay AID720673 (NMMLSC, 2013)
Active and inactive are the calls of the source. No rule for the calls is given here.

molecular target: Botulinum neurotoxin type A light chain (Clostridium botulinum A ATCC 3502); assay: inhibition of botulinum toxin A LC cleavage – biochemical, powder set 03, dose response (AID 720673); details: BoNT/A LC protease, multiplex microsphere substrate cleavage assay

How did the EC50 turn out when `COc1ccc(-c2cn3nc(-c4ccc(C)cc4)c(-c4ccc(C)cc4)nc3n2)c(OC)c1` was run?
The EC50 was 9.5 µM.

For `CC(Oc1ccccc1)C(=O)Nc1ccc2nc(-c3ccccc3)c(-c3ccccc3)nc2c1` (configuration not stated), which EC50 is on record?
Its EC50 is > 20 µM (inactive).

With `CC(C)CS(=O)(=O)Nc1ccc2nc(-c3ccccc3)c(-c3ccccc3)nc2c1` as the compound, how does the EC50 read?
Its EC50 is > 20 µM (inactive).

`COc1ccc(-c2nc3nc(-c4ccc(F)cc4)cn3nc2-c2ccc(OC)cc2)cc1` was tested. Which EC50 did it give?
The EC50 was 4 µM.

For `COc1ccc(-c2nc3nc(-c4ccc(C#N)cc4)cn3nc2-c2ccc(OC)cc2)cc1`, which EC50 is on record?
The EC50 was 2.4 µM.

With `CCCS(=O)(=O)Nc1ccc2nc(-c3cccs3)c(-c3cccs3)nc2c1` as the compound, how does the EC50 read?
Its EC50 is > 20 µM (inactive).

Which EC50 does the source give for `Cc1ccc(-c2nc3nc(-c4ccccc4)cn3nc2-c2ccc(C)cc2)cc1` here?
The EC50 was 7.4 µM.

For `O=C(Nc1ccc2nc(-c3cccs3)c(-c3cccs3)nc2c1)C1CCCC1`, which EC50 is on record?
Its EC50 is > 20 µM (inactive).

`Cc1ccc(-c2nc3nc(-c4ccc(OC(F)(F)F)cc4)cn3nc2-c2ccc(C)cc2)cc1` was tested. Which EC50 did it give?
The EC50 was 4 µM.

With `CC(C)(C)C(=O)Nc1ccc2nc(-c3ccccc3)c(-c3ccccc3)nc2c1` as the compound, how does the EC50 read?
The EC50 was > 20 µM (inactive).

For `Cc1ccc(-c2cn3nc(-c4ccc(C)cc4)c(-c4ccc(C)cc4)nc3n2)cc1`, which EC50 is on record?
Its EC50 is 4.7 µM.

Which EC50 does the source give for `CC(C)NC(=O)Nc1ccc2nc(-c3cccs3)c(-c3cccs3)nc2c1` here?
The EC50 was > 20 µM (inactive).

`Fc1ccc(-c2nc3nc(-c4ccc(OC(F)(F)F)cc4)cn3nc2-c2ccc(F)cc2)cc1` was tested. Which EC50 did it give?
Its EC50 is 15.3 µM.

For `COc1ccc(-c2nc3nc(-c4ccccc4OC)cn3nc2-c2ccc(OC)cc2)cc1`, which EC50 is on record?
The EC50 was 8.9 µM.

Which EC50 does the source give for `COc1cccc(-c2cn3nc(-c4ccc(C)cc4)c(-c4ccc(C)cc4)nc3n2)c1` here?
The EC50 was 6.6 µM.

How did the EC50 turn out when `Fc1ccc(-c2nc3nc(-c4ccccc4)cn3nc2-c2ccc(F)cc2)cc1` was run?
Its EC50 is 11.1 µM.

Which EC50 does the source give for `COc1ccc(-c2nc3nc(-c4ccc(OC(F)(F)F)cc4)cn3nc2-c2ccc(OC)cc2)cc1` here?
The EC50 was 4.2 µM.

How did the EC50 turn out when `Cc1ccc(-c2nc3nc(-c4ccc(F)cc4)cn3nc2-c2ccc(C)cc2)cc1` was run?
The EC50 was 7.6 µM.

`CC(C)OC(=O)Nc1ccc2nc(-c3cccs3)c(-c3cccs3)nc2c1` was tested. Which EC50 did it give?
Its EC50 is > 20 µM (inactive).

How did the EC50 turn out when `COc1ccccc1-c1cn2nc(-c3ccc(C)cc3)c(-c3ccc(C)cc3)nc2n1` was run?
Its EC50 is 12.4 µM.

With `O=C(Nc1ccc2nc(-c3cccs3)c(-c3cccs3)nc2c1)C1CC1` as the compound, how does the EC50 read?
The EC50 was > 20 µM (inactive).

How did the EC50 turn out when `Clc1ccc(-c2cn3nc(-c4ccccc4)c(-c4ccccc4)nc3n2)c(Cl)c1` was run?
Its EC50 is > 20 µM (inactive).

`COc1cccc(-c2cn3nc(-c4ccc(F)cc4)c(-c4ccc(F)cc4)nc3n2)c1` was tested. Which EC50 did it give?
The EC50 was 11.1 µM.

`O=S(=O)(Nc1ccc2nc(-c3cccs3)c(-c3cccs3)nc2c1)C1CC1` was tested. Which EC50 did it give?
Its EC50 is > 20 µM (inactive).

Which EC50 does the source give for `COc1ccc(-c2nc3nc(-c4ccc(OC)cc4OC)cn3nc2-c2ccc(OC)cc2)cc1` here?
Its EC50 is > 20 µM (inactive).

`Cc1ccc(-c2nc3nc(-c4ccc(C#N)cc4)cn3nc2-c2ccc(C)cc2)cc1` was tested. Which EC50 did it give?
The EC50 was 4.7 µM.

Which EC50 does the source give for `CC(C)CS(=O)(=O)Nc1ccc2nc(-c3cccs3)c(-c3cccs3)nc2c1` here?
Its EC50 is > 20 µM (inactive).

For `COc1ccc(-c2nc3nc(-c4ccc(S(C)(=O)=O)cc4)cn3nc2-c2ccc(OC)cc2)cc1`, which EC50 is on record?
The EC50 was > 20 µM (inactive).

`Cc1ccc(-c2cn3nc(-c4ccc(F)cc4)c(-c4ccc(F)cc4)nc3n2)cc1` was tested. Which EC50 did it give?
Its EC50 is 7.7 µM.

Which EC50 does the source give for `COc1ccc(-c2cn3nc(-c4ccc(F)cc4)c(-c4ccc(F)cc4)nc3n2)cc1` here?
The EC50 was 7.1 µM.

`CCC(=O)Nc1ccc2nc(-c3ccccc3)c(-c3ccccc3)nc2c1` was tested. Which EC50 did it give?
Its EC50 is > 20 µM (inactive).

How did the EC50 turn out when `O=C(Nc1ccc2nc(-c3ccccc3)c(-c3ccccc3)nc2c1)C1CC1` was run?
Its EC50 is > 20 µM (inactive).

Which EC50 does the source give for `CC(=O)Nc1ccc2nc(-c3ccccc3)c(-c3ccccc3)nc2c1` here?
Its EC50 is > 20 µM (inactive).

With `FC(F)(F)Oc1ccc(-c2cn3nc(-c4ccccc4)c(-c4ccccc4)nc3n2)cc1` as the compound, how does the EC50 read?
Its EC50 is > 20 µM (inactive).

`Cc1ccc(-c2nc3nc(-c4cccc(F)c4)cn3nc2-c2ccc(C)cc2)cc1` was tested. Which EC50 did it give?
Its EC50 is 5.2 µM.

How did the EC50 turn out when `COc1ccc(-c2nc3nc(-c4cccc(F)c4)cn3nc2-c2ccc(OC)cc2)cc1` was run?
The EC50 was 7 µM.

With `O=S(=O)(Nc1ccc2nc(-c3ccccc3)c(-c3ccccc3)nc2c1)C1CC1` as the compound, how does the EC50 read?
Its EC50 is > 20 µM (inactive).

How did the EC50 turn out when `COc1ccccc1-c1cn2nc(-c3ccccc3)c(-c3ccccc3)nc2n1` was run?
The EC50 was 10.9 µM.

How did the EC50 turn out when `CC(C)(C)NC(=O)Nc1ccc2nc(-c3ccccc3)c(-c3ccccc3)nc2c1` was run?
The EC50 was > 20 µM (inactive).

How did the EC50 turn out when `COc1ccc(-c2cn3nc(-c4ccccc4)c(-c4ccccc4)nc3n2)c(OC)c1` was run?
The EC50 was 13.2 µM.

How did the EC50 turn out when `CC(C)NC(=O)Nc1ccc2nc(-c3ccccc3)c(-c3ccccc3)nc2c1` was run?
Its EC50 is > 20 µM (inactive).

With `CCCS(=O)(=O)Nc1ccc2nc(-c3ccccc3)c(-c3ccccc3)nc2c1` as the compound, how does the EC50 read?
Its EC50 is > 20 µM (inactive).

Which EC50 does the source give for `O=C(Nc1ccc2nc(-c3cccs3)c(-c3cccs3)nc2c1)NC1CCCC1` here?
The EC50 was > 20 µM (inactive).

`COc1ccccc1-c1cn2nc(-c3ccc(F)cc3)c(-c3ccc(F)cc3)nc2n1` was tested. Which EC50 did it give?
The EC50 was 6.2 µM.

`CCOC(=O)Nc1ccc2nc(-c3ccccc3)c(-c3ccccc3)nc2c1` was tested. Which EC50 did it give?
Its EC50 is > 20 µM (inactive).

For `N#Cc1ccc(-c2cn3nc(-c4ccc(F)cc4)c(-c4ccc(F)cc4)nc3n2)cc1`, which EC50 is on record?
Its EC50 is > 20 µM (inactive).

For `O=C(Nc1ccc2nc(-c3ccccc3)c(-c3ccccc3)nc2c1)C1CCCCC1`, which EC50 is on record?
Its EC50 is > 20 µM (inactive).

For `Fc1ccc(-c2cn3nc(-c4ccc(F)cc4)c(-c4ccc(F)cc4)nc3n2)cc1`, which EC50 is on record?
The EC50 was 6.7 µM.

How did the EC50 turn out when `CCNC(=O)Nc1ccc2nc(-c3cccs3)c(-c3cccs3)nc2c1` was run?
The EC50 was 14.3 µM.

Which EC50 does the source give for `CS(=O)(=O)c1ccc(-c2cn3nc(-c4ccccc4)c(-c4ccccc4)nc3n2)cc1` here?
Its EC50 is 11.6 µM.

`O=C(Nc1ccc2nc(-c3ccccc3)c(-c3ccccc3)nc2c1)C1CCCC1` was tested. Which EC50 did it give?
The EC50 was > 20 µM (inactive).

Which EC50 does the source give for `O=C(Nc1ccc2nc(-c3ccccc3)c(-c3ccccc3)nc2c1)OCc1ccccc1` here?
Its EC50 is > 20 µM (inactive).

`O=C(Nc1ccc2nc(-c3cccs3)c(-c3cccs3)nc2c1)OCc1ccccc1` was tested. Which EC50 did it give?
The EC50 was 10.6 µM.

With `CCNC(=S)Nc1ccc2nc(-c3ccccc3)c(-c3ccccc3)nc2c1` as the compound, how does the EC50 read?
Its EC50 is > 20 µM (inactive).

Which EC50 does the source give for `COC(=O)Nc1ccc2nc(-c3cccs3)c(-c3cccs3)nc2c1` here?
The EC50 was > 20 µM (inactive).

How did the EC50 turn out when `CCS(=O)(=O)Nc1ccc2nc(-c3ccccc3)c(-c3ccccc3)nc2c1` was run?
The EC50 was > 20 µM (inactive).

Which EC50 does the source give for `COc1ccc(-c2cn3nc(-c4ccc(F)cc4)c(-c4ccc(F)cc4)nc3n2)c(OC)c1` here?
The EC50 was 5.7 µM.

With `CCOC(=O)Nc1ccc2nc(-c3cccs3)c(-c3cccs3)nc2c1` as the compound, how does the EC50 read?
Its EC50 is > 20 µM (inactive).

`CCCCOC(=O)Nc1ccc2nc(-c3cccs3)c(-c3cccs3)nc2c1` was tested. Which EC50 did it give?
Its EC50 is > 20 µM (inactive).

`CCCOC(=O)Nc1ccc2nc(-c3ccccc3)c(-c3ccccc3)nc2c1` was tested. Which EC50 did it give?
The EC50 was > 20 µM (inactive).

How did the EC50 turn out when `Fc1ccc(-c2nc3nc(-c4cccc(F)c4)cn3nc2-c2ccc(F)cc2)cc1` was run?
The EC50 was 8.6 µM.

For `CCCCOC(=O)Nc1ccc2nc(-c3ccccc3)c(-c3ccccc3)nc2c1`, which EC50 is on record?
The EC50 was > 20 µM (inactive).

With `COc1ccc(-c2nc3nc(-c4cccc(OC)c4)cn3nc2-c2ccc(OC)cc2)cc1` as the compound, how does the EC50 read?
The EC50 was 14.7 µM.

Which EC50 does the source give for `CCC(=O)Nc1ccc2nc(-c3cccs3)c(-c3cccs3)nc2c1` here?
Its EC50 is > 20 µM (inactive).

`COc1cccc(-c2cn3nc(-c4ccccc4)c(-c4ccccc4)nc3n2)c1` was tested. Which EC50 did it give?
Its EC50 is 16.2 µM.

Which EC50 does the source give for `COC(=O)Nc1ccc2nc(-c3ccccc3)c(-c3ccccc3)nc2c1` here?
Its EC50 is > 20 µM (inactive).

`O=C(Nc1ccc2nc(-c3ccccc3)c(-c3ccccc3)nc2c1)C1CCC1` was tested. Which EC50 did it give?
The EC50 was > 20 µM (inactive).

With `COc1ccc(-c2nc3nc(-c4ccccc4)cn3nc2-c2ccc(OC)cc2)cc1` as the compound, how does the EC50 read?
The EC50 was 9.2 µM.

`CCCNC(=O)Nc1ccc2nc(-c3ccccc3)c(-c3ccccc3)nc2c1` was tested. Which EC50 did it give?
Its EC50 is > 20 µM (inactive).

Which EC50 does the source give for `CCCOC(=O)Nc1ccc2nc(-c3cccs3)c(-c3cccs3)nc2c1` here?
The EC50 was > 20 µM (inactive).

Which EC50 does the source give for `Fc1ccc(-c2cn3nc(-c4ccccc4)c(-c4ccccc4)nc3n2)cc1` here?
The EC50 was > 20 µM (inactive).

`O=C(Nc1ccc2nc(-c3ccccc3)c(-c3ccccc3)nc2c1)NC1CCCC1` was tested. Which EC50 did it give?
Its EC50 is > 20 µM (inactive).

For `Fc1cccc(-c2cn3nc(-c4ccccc4)c(-c4ccccc4)nc3n2)c1`, which EC50 is on record?
Its EC50 is > 20 µM (inactive).

For `COc1ccc(-c2nc3nc(-c4ccc(C)cc4)cn3nc2-c2ccc(OC)cc2)cc1`, which EC50 is on record?
Its EC50 is > 20 µM (inactive).

Which EC50 does the source give for `Cc1ccc(-c2nc3nc(-c4ccc(S(C)(=O)=O)cc4)cn3nc2-c2ccc(C)cc2)cc1` here?
The EC50 was 7.6 µM.

`CC(C)OC(=O)Nc1ccc2nc(-c3ccccc3)c(-c3ccccc3)nc2c1` was tested. Which EC50 did it give?
Its EC50 is > 20 µM (inactive).

With `O=C(Nc1ccc2nc(-c3cccs3)c(-c3cccs3)nc2c1)C1CCC1` as the compound, how does the EC50 read?
The EC50 was > 20 µM (inactive).

With `COc1ccc(-c2cn3nc(-c4ccc(C)cc4)c(-c4ccc(C)cc4)nc3n2)cc1` as the compound, how does the EC50 read?
Its EC50 is 5 µM.

How did the EC50 turn out when `N#Cc1ccc(-c2cn3nc(-c4ccccc4)c(-c4ccccc4)nc3n2)cc1` was run?
The EC50 was > 20 µM (inactive).

How did the EC50 turn out when `CS(=O)(=O)c1ccc(-c2cn3nc(-c4ccc(F)cc4)c(-c4ccc(F)cc4)nc3n2)cc1` was run?
The EC50 was > 20 µM (inactive).

Which EC50 does the source give for `CCNC(=O)Nc1ccc2nc(-c3ccccc3)c(-c3ccccc3)nc2c1` here?
The EC50 was > 20 µM (inactive).

`COc1ccc(-c2cn3nc(-c4ccc(OC)cc4)c(-c4ccc(OC)cc4)nc3n2)cc1` was tested. Which EC50 did it give?
Its EC50 is 5.7 µM.
